93 molecules from a melting point compilation (Tetko et al.; mined from patent text by program, amines drawn as free bases though some values may be those of a salt) can be followed below.

As usually defined, the melting point is the temperature of the solid-liquid transition. In turn, `CCCC=Cc1c(C(C)C)nc(C(C)C)c(CO)c1-c1ccc(F)cc1F` had a melting point of 59 to 62 °C.
The result for `CC(C)(C)C(=O)c1[nH]c2cc(Cl)ccc2c1N` reads 132 to 134 °C; that for `O=C(O)COC1=C(Cc2ccc3ccccc3c2)C(=O)CCC1`, 170 to 171 °C; that for `CCn1cc(C(=O)O)c(=O)c2cc(F)c(N3CCC(NC(C)=O)C3)nc21` (stereo not drawn), 283 to 284 °C.
For `O=C(O)CCCC(=O)N1CCN(c2cc3c(cc2F)c(=O)c(C(=O)O)c2sccn23)CC1` the value was 276 to 278 °C; for `Cn1nc(-c2c(F)cccc2Cl)nc1COc1ccc(C(C)(C)C)cc1`, 84 to 86 °C; for `COc1cccc2sc(NN)nc12`, 215 to 220 °C.
For the molecule `CC(C(=O)O)c1ccc(CC2CCCCC2=NO)cc1` (stereo not drawn), the melting point lay within 143 to 150 °C.
The result for `Nc1cc(F)cc2cc(C(=O)NCC(F)(F)C(F)(F)C(F)(F)F)cnc12` reads 202 to 204 °C; that for `Cc1cc([N+](=O)[O-])c(O)c(Cl)c1C`, 62 to 63 °C; that for `Cc1cccc2c1C(=O)c1c-2csc1N`, 196 to 198 °C.
The result for `CN(C)c1ccn2nc(S(=O)(=O)Nc3c(Cl)cccc3Cl)nc2n1` reads greater than 310 °C.
The result for `Cc1oc(-c2ccccc2)nc1CCCCCOC(C)(C)C(=O)O` reads 66 to 68 °C; that for `CC12CCC3C(CCC4=CC(=O)C=C(CO)C43C)C1CCC2=O` (stereo not drawn), 201 to 202 °C.
Molecule `CCOC(=O)/C=C/c1cn(Cc2cc(OCc3ccccc3)cc(OCc3ccccc3)c2)cc1-c1ccccc1` registered a melting point of 98 to 99 °C.
The result for `O=C(O)c1c(Cl)ccc([N+](=O)[O-])c1Cl` reads 133 to 135 °C; that for `CC(C)C(C)NC1=NS(=O)(=O)c2cc([N+](=O)[O-])ccc2N1` (stereo not drawn), 308 to 311 °C; that for `COc1ccc(C(Cc2ccccc2)=NO)cc1`, 132 to 135 °C.
The result for `O=C1COc2cc(F)c(F)cc2N1` reads 214 to 219 °C.
The result for `COC(=O)C1=C(C)NC(C)=C(C(=O)OC)C1c1ccc(OCC(=O)NCCO[N+](=O)[O-])c(OC)c1` reads 149 to 150 °C.
As for `COC(=N)c1ncn(C2OC(CO)C(O)C2O)n1` (stereo not drawn), the melting point is 150 to 153 °C.
The result for `O=C1SC2CCN(Cc3ccccc3Cl)CC2=C1O` (stereo not drawn) reads 121 °C.
The result for `C(=C\c1cc(/C=C/c2c[nH]c3ccccc23)n[nH]1)/c1cccc(OCc2ccccn2)c1` reads 198 to 201 °C; that for `CC(C)c1cc2c(s1)Sc1ccccc1NC2=S`, 210 °C.
`N=C(NO)c1ccc(-c2ccc(O)c(-c3nc4cc(C(=N)NO)ccc4[nH]3)c2)cc1` displayed a melting point of 319 to 322 °C.
The result for `COc1cccc(-n2c(-c3sc(Nc4ccccc4)nc3-c3ccccc3)nc3ccccc3c2=O)c1` reads 250 to 252 °C; that for `O=[N+]([O-])c1ccc(OCC2CC2)c(C(F)(F)F)c1`, 41 to 44 °C.
The result for `Cn1nc(-c2ccccc2)c2ccc(Cl)nc21` reads 94 to 96 °C.
For `CON1CCC2(CC1)C(O)=C(c1cc(C)c(C)cc1Cl)C(=O)N2C` the value was 191 to 192 °C.
Molecule `Cc1ccc(C(=O)c2ccc(C(=O)c3ccc(C)cc3)cc2)cc1` displayed a melting point of 178 to 187 °C.
The result for `C#CCOc1ccc(C(=O)C=Cc2ccc(C#N)cc2)c(O)c1` reads 188 to 190 °C; that for `COC(=O)C=Cc1nn(-c2ccccc2)c2c1CCC2`, 147 to 148 °C.
For `O=c1c(Oc2ccccc2)nc2ccccc2n1-c1ccc(Cl)cc1` the value was 239 to 241 °C.
For the molecule `BrCCc1c[nH]c2ccccc12`, the melting point lay in the range of 57 to 60 °C.
The result for `COc1cccc(OC)c1C(=O)P(=S)(C(=O)c1c(OC)cccc1OC)c1ccccc1` reads 155 °C; that for `COC(=O)c1sc2nc(-c3ccccc3)cnc2c1N`, 197 to 198 °C; that for `COc1cc(C=CC(=O)c2ccc(OC)c(OC)c2OC)cc(OC)c1`, 112 °C.
For `CN1CCN(CC2CCCCN2CC(=O)N2c3ccccc3C(=O)Nc3cccnc32)CC1` (stereo not drawn) the value was 203 to 205 °C; for `CNCc1cn(S(=O)(=O)c2cccnc2)c(-c2ccccc2)c1F`, 98 to 99 °C; for `CCC1OC(=O)C(C)C(OC2CC(C)(OC)C(O)C(C)O2)C(C)C(OC2OC(C)CC(N(C)C)C2O)C(C)(OC)CC(C)C(=O)C(C)C(O)C1(C)O` (stereo not drawn), 100 °C.
The result for `C=CCOC(=O)C(C(=O)NC1C(=O)N2C1SC(C)(C)C2C(=O)OCC=C)=C1SCCS1` (stereo not drawn) reads 76 to 77 °C.
Regarding `CC=CC=NNC(=O)c1cccnc1`, the melting point was 144 to 145 °C.
As for `O=c1ccc(S(=O)(=O)c2oc3ccccc3c2-c2ccccc2)n[nH]1`, the melting point was greater than 220 °C.
For `COc1cccc(CN2CCC(c3cc(-c4ccc(Cl)cc4)[nH]n3)CC2)c1` the value was 50 to 52 °C; for `CCOC(=O)c1cnc(Nc2cc(C)ccc2C)[nH]c1=O`, 252 to 254 °C.
For `O=C(CCc1ccccc1)CS(=O)(=O)C(c1ccc(Cl)cc1)c1ccc(Cl)cc1` the value was 106 to 107 °C; for `CNC(=O)OCCOc1cc(-n2c(=O)cc(C(F)(F)F)n(C)c2=O)c(F)cc1Cl`, 173 to 175 °C; for `COc1cc(N)ccc1-c1ccc(-c2ccc(N)cc2OC)o1`, 201 to 202 °C.
For `CCc1ncnc(NC(CC)c2ccc(Oc3c(F)c(F)c(C(F)(F)F)c(F)c3F)cc2)c1Cl` (stereo not drawn) the value was 58 to 61 °C; for `Cc1cc(C(=O)c2[nH]c3ccc(Cl)cc3c2CC(=O)O)no1`, 253 to 255 °C.
Molecule `O=C(O)c1cccc(CN2CCC(c3cn(CCc4ccccn4)c4ccccc34)CC2)c1` gave a melting point of 141 to 142 °C.
Turning to `Cc1nc2c(c(=O)[nH]1)CC(C)C2` (stereo not drawn), the melting point was in the range of 174 to 175 °C.
The result for `O=C1CCC(c2ccc3[nH]c(-c4ccsc4)cc3c2)=NN1` reads 325 to 333 °C; that for `CC(C)C#Cc1ncn2c1CN(C)C(=O)c1c(Cl)cccc1-2`, 128 to 130 °C.
The result for `CCC(C)(C)c1cc(-c2cccc(C=C3SC(N4CCOCC4)=NC3=O)c2)cc(F)c1O` reads 206 to 208 °C; that for `Nc1ccc(S(F)(F)(F)(F)F)cc1`, 63 to 65 °C; that for `Cc1cc(C)c(C(C)(C#N)c2nc(C)nc(Cl)c2C)c(C)c1` (stereo not drawn), 181 to 183 °C.
The result for `Nc1c2c(nc3cc(Cl)ccc13)CCCC2=O` reads 285 to 287 °C; that for `C=CCC(C(=O)O)c1ccc(C(=O)c2cccs2)cc1` (stereo not drawn), 117 °C.
`N#CC(CF)(CF)CF` returned a melting point of 70 to 75 °C.
For `N#Cc1cccc(C=O)c1[N+](=O)[O-]` the value was 109 to 111 °C.
In turn, `Cc1cc(NCCNCC(O)COc2ccccc2)n2ncnc2n1` (stereo not drawn) showed a melting point of 126 to 127 °C.
The result for `CN1CC(CCCl)Oc2c(ccc3ccccc23)C1=S` (stereo not drawn) reads 167 to 170 °C.
For `O=Cc1cccc(COc2cccc(-c3ccsc3)c2)c1` the value was 62 to 63 °C.
The result for `COc1cccc(CCNCCc2c[nH]cn2)c1` reads 98 to 100 °C; that for `COC1(c2cc(F)cc(Sc3ccc4c(c3)CCC(=S)N4C)c2)CCOCC1`, 134 °C; that for `NS(=O)(=O)c1cccc(C(=O)C(F)(F)F)c1`, 88.4 to 89.1 °C.
With `CC(CC(=O)NC(=O)OC(C)(C)C)Nc1ccccc1` (stereo not drawn), the melting point lay within 117 to 118 °C.
`CSC1CC(=O)N1CC(=O)c1ccccc1` (stereo not drawn) yielded a melting point of 43 to 45 °C.
The result for `O=C(NC1CCCCC1)N1CCc2cc(S(=O)(=O)N3CC(c4ccccc4)NC3=O)ccc21` (stereo not drawn) reads 273 to 275 °C; that for `CCOC(=O)C(Cc1ccc(OCCc2nc(-c3ccccc3)oc2C)cc1)C(=O)OCC`, 69.8 to 70.5 °C.
With `Fc1ccc2nc(S)sc2c1`, the melting point lay in the range of 224 to 226 °C.
For `COc1ccc(-c2cc(Cl)cc3c2N(C)C(CN)CO3)c(C)c1` (stereo not drawn) the value was 106 °C; for `CN(C)c1ccc(C(=O)Cc2cccc(Cl)c2)cc1`, 126 to 128 °C; for `CC(=O)Oc1cccc2c1CCNC2=O`, 189 to 193 °C.
The result for `CS(=O)(=O)c1ccc(C(CC2CCCC2)C(=O)Nc2ccccn2)cc1S(C)(=O)=O` (stereo not drawn) reads 107 to 110 °C; that for `O=C(c1ccccc1)c1ccc(O)c(Cl)c1`, 180 °C; that for `Cc1ccc(C2Sc3ccccc3NC(=O)C2COS(C)(=O)=O)cc1` (stereo not drawn), 207 °C.
For `Cn1c2cc3ccccc3nc2c2c(Cl)cccc21` the value was 228 to 230 °C; for `CCON=C(CC)C1=C(O)CC(c2ccc(Oc3ncc(C(F)(F)F)cc3F)cc2)CC1=O` (stereo not drawn), 82 to 82.5 °C; for `COc1c(-c2cc3c(s2)C(O)CC(C)(C)C3)ccc2c(=O)c(C(=O)O)cn(C3CC3)c12` (stereo not drawn), 182 to 183 °C.
Regarding `CC(C)(C)OC(=O)NC(C)(C(=O)O)c1nc2ccccc2s1` (stereo not drawn), the melting point is 148 to 150 °C.
For `CCOc1c(C(=O)Nc2ccccc2)csc1Cl` the value was 69 °C; for `COC1(c2ccc(N(C)C)cc2)OC(=O)c2ccccc21` (stereo not drawn), 112 to 114 °C.
The result for `O=C(O)c1ccc(C(=O)/C=C/c2ccc(-c3cncnc3)cc2)cc1` reads greater than 260 °C; that for `CCCCCOC(=O)c1cc(NC(=O)C2=C(C)OCCS2)ccc1Cl`, 65 to 68 °C; that for `Cn1c(C(F)(F)F)cc(=O)n(-c2ccc3snc(C(C)(C)C(N)=O)c3c2)c1=O`, 192 to 196 °C.
For `O=C1NCCc2c(-c3ccc(Cl)c(C(F)(F)F)c3)[nH]c3cccc1c23` the value was 118 to 119 °C; for `CCC(=O)NCC=C1CCc2ccc3ncoc3c21`, 148 to 150 °C.
`CNC(=C[N+](=O)[O-])NCCOc1cccc(CCCN(C)C)c1`: the melting point was 82 to 83.5 °C.
For `Cc1cc(-c2sc(N3CCN(Cc4ccc(C(F)(F)F)cc4)C3=O)nc2C)on1` the value was 201 to 203 °C; for `N#Cc1ccc(-c2c[nH]nc2C(F)(F)F)cc1SCC(F)(F)F`, 65 to 67 °C.
The molecule `CCCCCCCCc1ccccc1CCC(NC(C)=O)(C(=O)OCC)C(=O)OCC` had a melting point of 37 to 38 °C.
